The supplement of paper PMC10307832

Assays:
Assay in all cases: relative viability (nuclei count vs DMSO), 5 days (fraction); higher = more cells survive
Sulindac + OSI-027 = compound: CC1=C(CC(=O)O)c2cc(F)ccc2/C1=C\c1ccc([S+](C)[O-])cc1 [Sulindac] + COc1cccc2cc(-c3nc([C@H]4CC[C@H](C(=O)O)CC4)n4ncnc(N)c34)[nH]c12 [OSI-027] (partner 0.5 µM)
How it was run: (§1)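 Relative viability was taken as the ratio of nuclei in treated wells to nuclei in vehicle wells. Lung cancer cell lines in 1536-well plates received compounds by pin tool one day after seeding, either one drug alone or a fixed anchor-drug dose plus five library-drug doses (not always all listed) in √10 steps. Nuclei were counted on 4× images after 5 days of treatment, and values are medians of duplicate plates.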

[1] = compound: CN[C@@H]1C[C@H]2O[C@@](C)([C@@H]1OC)n1c3ccccc3c3c4c(c5c6ccccc6n2c5c31)C(=O)NC4 [Staurosporine] + Cc1cc(Nc2cc(N3CCN(C)CC3)nc(Sc3ccc(NC(=O)C4CC4)cc3)n2)n[nH]1 [Tozasertib] (partner 0.1 µM)
How it was run: as §1

[2] = compound: O=c1[nH]cc(F)c(=O)[nH]1 [5-Fluorouracil] + C[C@@H](Oc1cc(-c2cnn(C3CCNCC3)c2)cnc1N)c1c(Cl)ccc(F)c1Cl [Crizotinib] (partner 1 µM)
How it was run: as §1

[3] = compound: O=c1[nH]cc(F)c(=O)[nH]1 [5-Fluorouracil] + O=C(CCCCCCC(=O)Nc1ccccc1)NO [Vorinostat] (partner 1 µM)
How it was run: as §1

A-427
relative viability (Sulindac + OSI-027; first compound 0.08 µM): 0.495
relative viability (Sulindac + OSI-027; first compound 0.253 µM): 0.474
relative viability (Sulindac + OSI-027; first compound 0.8 µM): 0.443
relative viability (Sulindac + OSI-027; first compound 2.53 µM): 0.459
relative viability (Sulindac + OSI-027; first compound 8 µM): 0.584
relative viability ([1]; first compound 0.005 µM): 0.171
relative viability ([1]; first compound 0.01581 µM): 0.113
relative viability ([1]; first compound 0.05 µM): 0.1
relative viability ([1]; first compound 0.1581 µM): 0.104
relative viability ([1]; first compound 0.5 µM): 0.0934
relative viability ([2]; first compound 0.02 µM): 0.799
relative viability ([2]; first compound 0.2 µM): 0.965
relative viability ([2]; first compound 0.6325 µM): 0.77
relative viability ([2]; first compound 2 µM): 0.378
relative viability ([3]; first compound 0.02 µM): 0.812
relative viability ([3]; first compound 0.2 µM): 0.921
relative viability ([3]; first compound 0.6325 µM): 0.783
relative viability ([3]; first compound 2 µM): 0.419
